Literature values in patent US10466244B2, “Methods and materials for identifying therapeutic response in chronic myeloid leukemia” (RAJIV GANDHI CENTRE FOR BIOTECHNOLOGY, priority 2013, dated 2019).

Tested on: BCR-ABL
Conditions: relative to imatinib

SMILES: Cc1cn(-c2cc(NC(=O)c3ccc(C)c(Nc4nccc(-c5cccnc5)n4)c3)cc(C(F)(F)F)c2)cn1 [Nilotinib, nilotinib]
- increased potency compared with imatinib against BCR-ABL: 20- to 30 fold
